Results reported in PubChem BioAssay (NCI).
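48-hour exposure; five concentrations; linearly interpolated endpoints. Here, GI50 denotes the concentration required for 50% inhibition of growth. TGI denotes the concentration required for complete inhibition of growth.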

Legend:
Experiment in all cases: NCI anticancer screen, dose series, 48 h
K-562 leukemia = test system: K-562 leukemia
SF-268 CNS = test system: SF-268 CNS
MCF7 breast = test system: MCF7 breast
SF-539 CNS = test system: SF-539 CNS
RPMI-8226 leukemia = test system: RPMI-8226 leukemia
A549 NSCLC = test system: A549 NSCLC
ACHN renal = test system: ACHN renal
HOP-62 NSCLC = test system: HOP-62 NSCLC
NCI-H226 lung = test system: NCI-H226 lung
UACC-257 melanoma = test system: UACC-257 melanoma

Row | Compound | TGI (K-562 leukemia) [µM] | TGI (SF-268 CNS) [µM] | TGI (MCF7 breast) [µM] | TGI (SF-539 CNS) [µM] | TGI (RPMI-8226 leukemia) [µM] | TGI (A549 NSCLC) [µM] | TGI (ACHN renal) [µM] | TGI (HOP-62 NSCLC) [µM] | TGI (NCI-H226 lung) [µM] | TGI (UACC-257 melanoma) [µM] | GI50 (K-562 leukemia) [µM] | GI50 (SF-268 CNS) [µM] | GI50 (MCF7 breast) [µM] | GI50 (SF-539 CNS) [µM] | GI50 (RPMI-8226 leukemia) [µM] | GI50 (A549 NSCLC) [µM] | GI50 (ACHN renal) [µM] | GI50 (UACC-257 melanoma) [µM] | GI50 (NCI-H226 lung) [µM]
1 | CCN(CCO)C(=O)C1(c2ccccc2)CCCCC1 | > 10 | > 10 | > 10 | > 10 | > 10 | > 10 | > 10 | > 10 | > 10 |  |  |  |  |  |  |  |  |  | 
2 | CCCCC(=O)c1ccc2ccccc2c1O | > 100 | > 100 | > 100 | > 100 | > 100 |  | > 100 | > 100 | > 100 | > 100 |  |  |  |  |  |  |  |  | 
3 | CCOC(=O)NC(=O)c1cn(CCNCCO)c(=O)[nH]c1=O | > 100 | > 100 |  | > 100 | > 100 | > 100 | > 100 | > 100 | > 100 |  |  |  |  |  |  |  |  |  | 
4 | CN(CCC(=O)O)C1=Nc2ccc(Cl)cc2C(c2ccccc2)=[N+]([O-])C1 | > 100 | > 100 | > 100 | > 100 | > 100 | > 100 | > 100 | > 100 | > 100 | > 100 |  |  |  |  |  |  |  |  | 
5 | OCCCNc1nc(=S)[nH]c2[nH]ncc12 | > 100 | 92.2 | 81.3 | > 100 | > 100 | > 100 | > 100 |  | 72.6 | > 100 | 44.5 | 32.7 | 29.8 | 23.3 | 80.8 | 44.7 | 40 | 68 | 27.6
6 | [Cl-].[Rh+3].c1cnc2c(c1)ccc1cccnc12.c1cnc2c(c1)ccc1cccnc12.c1cnc2c(c1)ccc1cccnc12 | > 100 |  |  | > 100 |  | > 100 | > 100 | > 100 |  | 92.5 |  |  |  |  |  |  |  |  | 
7 | c1nc(N2CC2)c2cnn(C3CCCCO3)c2n1 (configuration not stated) | > 100 | > 100 | > 100 | > 100 | > 100 | > 100 | > 100 | > 100 | > 100 | > 100 |  |  |  |  |  |  |  |  | 
8 | C[C@]12CC[C@H](OC(=O)Cc3ccc(N(CCCl)CCCl)cc3)CC1=CC[C@@H]1[C@@H]2CC[C@]2(C)C(=O)CC[C@@H]12 | > 100 | > 100 | > 100 | > 100 | > 100 | > 100 | > 100 | > 100 | > 100 | > 100 |  |  |  |  |  |  |  |  | 
9 | O=S(=O)(O)C1=C2Sc3ccccc3N=C2c2ccccc2C1 | 36.1 | 27.5 |  | 24.4 | 38.6 | 34.3 | 25.1 | 35 | 35.5 | 31.4 |  |  |  |  |  |  |  |  | 
10 | Ic1ccc2c(c1)N(c1ccccc1)c1cc(N=c3ccc4nc5ccc(I)cc5n(-c5ccccc5)c-4c3)ccc1N2 | > 100 | > 100 | > 100 | > 100 | > 100 | > 100 | > 100 | > 100 | > 100 | > 100 |  |  |  |  |  |  |  |  | 
11 | C[N+](C)(C)CCCSc1nc2ccccc2[nH]1 | > 100 | > 100 | > 100 |  | > 100 | > 100 | > 100 | > 100 | > 100 | > 100 |  |  |  |  |  |  |  |  | 
12 | CN1CCN(c2ccc3[nH]c(-c4cc(O)c5c(nc(CO)n5C)c4O)nc3n2)CC1 | > 100 | > 100 |  | 44 | > 100 | > 100 | > 100 | > 100 | 96.5 | > 100 |  |  |  |  |  |  |  |  | 
13 | CCCC/C=C/C/C=C/CCCCCCCCC(=O)OCC1CCCN2CCCCC12 (configuration not stated) | > 100 | > 100 | > 100 | > 100 | > 100 | > 100 | > 100 | > 100 | > 100 | > 100 |  |  |  |  |  |  |  |  | 
